Each structure is given as a SMILES string.

This assay deals with T1, human renal renin (Homo sapiens, UniProt P00797).
T1 construct: human renal renin, free from acid proteolytic activity; from tissue; host or cells: human kidney (from the word 'renal')
T1 sequence (P00797 67-406): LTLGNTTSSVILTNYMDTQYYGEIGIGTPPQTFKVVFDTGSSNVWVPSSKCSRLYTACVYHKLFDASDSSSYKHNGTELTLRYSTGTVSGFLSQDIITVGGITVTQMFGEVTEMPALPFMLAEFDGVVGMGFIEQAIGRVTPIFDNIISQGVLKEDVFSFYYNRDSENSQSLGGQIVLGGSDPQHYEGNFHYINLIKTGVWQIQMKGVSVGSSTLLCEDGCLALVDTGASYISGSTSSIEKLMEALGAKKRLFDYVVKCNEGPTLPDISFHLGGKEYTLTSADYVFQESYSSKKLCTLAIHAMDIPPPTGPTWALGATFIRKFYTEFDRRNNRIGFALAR
Description: Inhibition of human renal renin in vitro (angiotensin I formed, measured by radioimmunoassay). The assay is classed as biochemical. To be noted: human renal renin with renin substrate (human angiotensinogen), 37° C., pH 6.0. As to the method:
At the end of the incubation, the amount of angiotensin I formed is measured by radioimmunoassay and the molar concentration required to cause 50% inhibition, expressed as the IC50 is calculated.
As to `CCCCC(NC(=O)CCc1ccccc1)C(=O)N[C@@H](CC1CCCCC1)[C@@H](O)[C@H]1OC[C@@H]1CC` (stereo partly drawn) [Example 186, Dihydrocinnamoyl-(nor)Leucine Amide of (1R,2S,2'S,3'S)-2-Amino-3-cyclohexyl-1-[3'-(ethyl)oxetan-2'-yl]-1-(hydroxy)propane], the concentration for half-maximal inhibition (IC50) came out at 3.3 nM.

Consider `CCCC[C@H](NC(=O)C(Cc1ccccc1)Cc1ccccc1)C(=O)N[C@@H](CC1CCCCC1)[C@@H](O)[C@H]1OC[C@@H]1CC` [Example 188, Dibenzylacetyl-(nor)Leucine Amide of (1R,2S,2'S,3'S)-2-Amino-3-cyclohexyl-1-[3'-(ethyl)oxetan-2'-yl]-1-(hydroxy)propane], for which the 50% inhibitory concentration (IC50) is 0.68 nM. Then `CCCC[C@H](NC(=O)[C@H](Cc1ccccc1)Cn1ccnc1)C(=O)N[C@@H](CC1CCCCC1)[C@@H](O)[C@H]1OC[C@@H]1CC` [Example 189, (2R)-2-Benzyl-3-(imidazol-1-yl)propionyl-(nor)Leucine Amide of (1R,2S,2'S,3'S)-2-Amino-3-cyclohexyl-1-[3'-(ethyl)oxetan-2'-yl]-1-(hydroxy)propane], with 0.46 nM; and `CC[C@H]1CO[C@@H]1[C@H](O)[C@H](CC1CCCCC1)NC(=O)C(C)NC(=O)[C@H](Cc1ccccc1)CS(=O)(=O)N1CCN(C)CC1` (stereo partly drawn) [Example 191, (2S) 2-Benzyl-3-(1-methyl-piperazin-4-ylsulfonyl)propionylalanine Amide of (1R,2S,2'S,3'S)-2-Amino-3-cyclohexyl-1-[3'-(ethyl)oxetan-2'-yl]-1-(hydroxy)propane], with 0.58 nM. `CC[C@H]1CO[C@@H]1[C@H](O)[C@H](CC1CCCCC1)NC(=O)C(C)NC(=O)[C@H](Cc1ccccc1)Cn1ccnc1` (stereo partly drawn) [Example 192, (2R)-2-Benzyl-3-(imidazol-1-yl)propionyl-alanine Acid of (1R,2S,2'S,3'S)-2-Amino-3-cyclohexyl-1-[3'-(ethyl)oxetan-2'-yl]-1-(hydroxy)propane] had an IC50 of 3.4 nM. This IC50 lies about 5.9-fold higher than the previous one.
